Here are results for 38 compounds from publication PMC9995496, “A screen for MeCP2-TBL1 interaction inhibitors using a luminescence-based assay” (Scientific Reports, 2023).

The test system of the experiment is PRKACA-PRKAR2A interaction (SmBiT-PRKACA / LgBiT-PRKAR2A), protein kinase A. On the set-up: NanoLuc complementation counter-screen in cell extract, PRKACA with PRKAR2A, loss of luminescence, detects NanoLuc interference. Particulars: 0.5 h, 20 µM, inhibitor.
Setting [1] is: counter-screen for NanoLuc interference.

Counter-ions that a name gives are not always drawn. Like-named read-outs stand apart in the source and are kept apart here. Ends that are not written are not given here.

For `N#Cc1cnc(Nc2cc(NC[C@H]3CNCCO3)c(C(F)(F)F)cn2)cn1` [UM0142825:01, CCT245737], under setting [1], the “Inh (PKA)” value came out at 4.036%.
Regarding `NS(=O)(=O)c1nn2cc(-c3ccccc3)nc2s1` [UM0142826:01, AEG 3482], the “Inh (PKA)” value under setting [1] was found to be 8.076%.
For `O=C(c1ccc(Cl)cc1)N(Cc1ccccc1)C1CCCCC1` [UM0142831:01, FPS-ZM1], the “Inh (PKA)” value under setting [1] was found to be 22.08%.
Consider `O=C(O)C1=C(CSc2nnnn2CS(=O)(=O)O)CS[C@@H]2[C@H](NC(=O)[C@H](O)c3ccccc3)C(=O)N12` [UM0142832:01, Cefonicid (sodium salt)], for which the “Inh (PKA)” value under setting [1] was 2.197%.
Turning to `Cc1cc(C)nc(NC(=S)N2CCN(Cc3ccc(C(F)(F)F)cc3)CC2)c1` [UM0142833:01, NCT-503], the “Inh (PKA)” value under setting [1] was 4.726%.
As for `N[C@@H](CC(=O)N1CCn2c(nnc2C(F)(F)F)C1)Cc1cc(F)c(F)cc1F` [UM0142834:01, Sitagliptin (phosphate)], under “counter-screen for NanoLuc interference, Inh (PKA)”, the “Inh (PKA)” value is listed as -0.1445%.
Take `O=C(CCCCCCC(=O)Nc1ccc(I)cc1)NO` [UM0142835:01, 4-iodo-SAHA]: the “Inh (PKA)” value under setting [1] is 5.197%.
Consider `CCCCCCCCCc1ccc(B(O)O)cc1` [UM0142836:01, 4-(n-nonyl) Benzeneboronic Acid], for which the “Inh (PKA)” value under setting [1] is -0.3283%.
For `Cc1snnc1-c1ccccc1` [UM0142838:01, 4-phenyl-5-methyl-1,2,3-Thiadiazole], the “Inh (PKA)” value under setting [1] amounted to 0.1553%.
`CC(C)(C)C(O)/C(=C\c1ccc(Cl)cc1)n1cncn1` (centres unmarked) [UM0142839:01, Uniconazole]: the “Inh (PKA)” value under setting [1] worked out at 40.56%.
In the case of `CC(=O)O[C@H]1C[C@@]2(C)[C@@H](C[C@@H](O)[C@H]3[C@@]4(C)CC[C@@H](O)[C@@H](C)[C@@H]4CC[C@@]32C)/C1=C(\CCC=C(C)C)C(=O)O` [UM0142840:01, Fusidic Acid (sodium salt)], the “Inh (PKA)” value under setting [1] is given as 1.888%.
`COc1cc(/C=C/CO)cc(OC)c1O[C@@H]1O[C@H](CO)[C@@H](O)[C@H](O)[C@H]1O` [UM0142842:01, Syringin]: the “Inh (PKA)” value under setting [1] is -0.4642%.
On to `C[C@H]1[C@H](C)CC[C@]2(C(=O)O)CC[C@]3(C)C(=CC[C@@H]4[C@@]5(C)C[C@@H](O)[C@H](O)[C@@](C)(CO)[C@@H]5CC[C@]43C)[C@H]12` [UM0142843:01, Asiatic acid], for which the “Inh (PKA)” value under setting [1] came out at 9.304%.
Consider `C[C@H]1[C@H](C)CC[C@]2(C(=O)O[C@@H]3O[C@H](CO[C@@H]4O[C@H](CO)[C@@H](O[C@@H]5O[C@H](C)[C@H](O)[C@@H](O)[C@H]5O)[C@H](O)[C@H]4O)[C@@H](O)[C@H](O)[C@H]3O)CC[C@]3(C)C(=CC[C@@H]4[C@@]5(C)C[C@@H](O)[C@H](O)[C@@](C)(CO)[C@@H]5CC[C@]43C)[C@H]12` [UM0142844:01, Asiaticoside], for which the “Inh (PKA)” value under setting [1] is recorded as -0.7873%.
On the same count and under the same terms, with `O=C1C[C@@H](c2ccc(O)cc2)Oc2cc(O)cc(O)c21` [UM0142845:01, Naringenin] the figure was 6.247%; with `C=C1CC[C@@H]2[C@](C)(CO)[C@H](O)CC[C@@]2(C)[C@H]1C/C=C1\C=COC1=O` [UM0142846:01, Dehydroandrographolide], 12.37%; with `CC(C)=CCCC(C)(O)C1CCC2(C)C1C(O)CC1C3(C)CCC(O)C(C)(C)C3CCC12C` (centres unmarked) [UM0142847:01, Protopanaxdiol], 2.916%.
Turning to `OC[C@H]1NC[C@H](O)[C@@H](O)[C@@H]1O` [UM0142849:01, 1-Deoxynojirimycin], the “Inh (PKA)” value under setting [1] came to 1.08%.
In the case of `C[C@H](CCC(=O)O)[C@H]1CC[C@H]2[C@@H]3CC[C@@H]4C[C@H](O)CC[C@]4(C)[C@H]3C[C@H](O)[C@]12C` [UM0142850:01, Deoxycholic acid], the “Inh (PKA)” value under setting [1] turned out to be 5.283%.
As for `O=C(O)c1cc(O)c2c(c1)[C@@H]([C@H]1c3cc(C(=O)O)cc(O)c3C(=O)c3c(O[C@@H]4O[C@H](CO)[C@@H](O)[C@H](O)[C@H]4O)cccc31)c1cccc(O[C@@H]3O[C@H](CO)[C@@H](O)[C@H](O)[C@H]3O)c1C2=O` [UM0142851:01, Sennoside B], the “Inh (PKA)” value under setting [1] turned out to be 36.22%.
On to `O=C(O)c1cc(O)c2c(c1)[C@H]([C@H]1c3cc(C(=O)O)cc(O)c3C(=O)c3c(O[C@@H]4O[C@H](CO)[C@@H](O)[C@H](O)[C@H]4O)cccc31)c1cccc(O[C@@H]3O[C@H](CO)[C@@H](O)[C@H](O)[C@H]3O)c1C2=O` [UM0142852:01, Sennoside A], for which the “Inh (PKA)” value under setting [1] worked out at 33.8%.
Still for that read-out and setting: as for `C[C@H]1[C@@H](O)O[C@@H]2O[C@@]3(C)CC[C@H]4[C@H](C)CC[C@@H]1[C@@]24OO3` [UM0142853:01, Dihydroartemisinin], the figure is 0.1421%; as for `CC1(C)[C@@H](O[C@H]2O[C@H](C(=O)O)[C@@H](O)[C@H](O)[C@H]2O[C@@H]2O[C@H](C(=O)O)[C@@H](O)[C@H](O)[C@H]2O)CC[C@]2(C)[C@H]3C(=O)C=C4[C@@H]5C[C@@](C)(C(=O)O)CC[C@]5(C)CC[C@@]4(C)[C@]3(C)CC[C@@H]12` [UM0142854:01, Glycyrrhizic acid], 4.863%.
As to `O=C1c2c(O)cc(O)cc2O[C@H](c2ccc(O)c(O)c2)[C@H]1O` [UM0142856:01, Taxifolin], the “Inh (PKA)” value under setting [1] is reported as 0.9672%.
Take `Cc1coc2c1C(=O)C(=O)c1c-2ccc2c(C)cccc12` [UM0142857:01, Tanshinone I]: the “Inh (PKA)” value under setting [1] came to 27.32%.
In the case of `O=C1c2c(O)cc(O)cc2O[C@H](c2cc(O)c(O)c(O)c2)[C@H]1O` [UM0142858:01, Dihydromyricetin], the “Inh (PKA)” value under setting [1] is reported as 4.571%.
For the compound `C=C1CC[C@@H]2[C@](C)(CO)[C@H](O)CC[C@@]2(C)[C@@H]1C/C=C1/C(=O)OC[C@H]1O` [UM0142859:01, Andrographolide], under setting [1], the “Inh (PKA)” value worked out at 1.527%.
Take `COc1ccc([C@@H]2CC(=O)c3c(O)cc(O)cc3O2)cc1O` [UM0142860:01, Hesperitin]: the “Inh (PKA)” value under setting [1] was found to be 3.061%.
Take `CCc1c2c(nc3ccc(O)cc13)-c1cc3c(c(=O)n1C2)COC(=O)[C@]3(O)CC` [UM0142861:01, 7-Ethyl-10-hydroxycamptothecin]: under setting [1], the “Inh (PKA)” value is on record as 8.347%.
In the case of `COC1=C[C@@H]2[C@@H]3Cc4ccc(OC)c(O)c4[C@]2(CCN3C)CC1=O` [UM0142862:01, Sinomenine Hydrochloride], the “Inh (PKA)” value amounted to 0.8653%.
With `O=c1cc(-c2ccc(O)c(-c3c(O)cc(O)c4c(=O)cc(-c5ccc(O)cc5)oc34)c2)oc2cc(O)cc(O)c12` [UM0142863:01, Amentoflavone], the “Inh (PKA)” value under setting [1] was found to be 47.02%.
Same read-out and setting: as for `CCCC[N+]1(C)[C@@H]2C[C@@H](OC(=O)[C@H](CO)c3ccccc3)C[C@H]1[C@@H]1O[C@@H]12` (some centres unmarked) [UM0142864:01, Scopolamine butylbromide], the figure is 0.502%; as for `Nc1ncnc2c1ncn2[C@@H]1O[C@H](CO)C[C@H]1O` [UM0142866:01, Cordycepin], -8.119%.
Take `Nc1ccccc1NC(=O)CCCCCCC(=O)Nc1ccccc1` [UM0142867:01, BML-210(CAY10433)]: under setting [1], the “Inh (PKA)” value stood at 8.004%.
Same read-out and setting: as for `Fc1ccc(C(c2ccc(F)cc2)N2CCN(C/C=C/c3ccccc3)CC2)cc1` [flunarizine], the figure is 10.34%; as for `C=C1C(=O)[C@]23[C@H](O)[C@H]1CC[C@H]2[C@@]12CO[C@]3(O)[C@@H](O)[C@@H]1C(C)(C)CC[C@@H]2O` [oridonin], 14.12%.
Turning to “QVPSRPNRAP [UM0141376:01, Dynamin inhibitory peptide]”, under setting [1], the “Inh (PKA)” value worked out at 1.092%.
Regarding “VPMLK [UM0141837:01, Bax inhibitor peptide V5]”, the “Inh (PKA)” value under setting [1] is -2.196%.
